The text below walks through data of patent US9828386B2 (priority 2013, dated 2017).

Holding throughout (experiment): cells
What all share (assay type): cell-based

In one test the test system is A549 cell line. Conditions: A549 cells, MTT, 48 h cultivation; read-out: IC50 (μM) A549. As for the experimental part: (§1) Test of compounds of embodiment of the present invention on inhibiting tumor cell activity
(§2) 3, cell lines: A549, BGC823, Hela cell line and normal human hepatocytes which are available from Wu Han boster Co., Ltd.;
(§3) A549, BGC823, Hela cell line and normal human hepatocytes in logarithmic growth phase are subjected to 1000 rpm centrifugation for 5 min, supernatant is then discarded, moderate medium is suspended, the cell concentration is adjusted to 3.5×10^4/well, the cells were seeded in 96-wells culture plate, and following experimental groups are set:
(§4) a negative control group; 35 test groups with same concentration (ie: groups of Compound (1) to Compound (35)); three control groups: groups of podophyllotoxin, 4′-demethylepipodophyllotoxin and etoposide.
(§5) Taking RPMI1640 containing 10% of calf serum as nutrient solution, 0.10 mL of cells per well is incubated under conditions of 37° C., 5% CO2 and saturated humidity for 24 h to nearly be covered, then the nutrient solution is discarded. […] 100 μl of DMSO is added to each well, then vibrated at 37° C. by shaker table for 30 min, then measuring absorbance (OD) at 492 nm, calculating MTT ratio=OD value of drug group/OD value of the negative control group.

The next test has as its system BGC823 cell line. Conditions: BGC823 cells, MTT, 48 h cultivation; read-out: IC50 (μM) BGC823. As for the experimental part: as §1, §2, §3, §4, §5
The test system of a further test is Hela cell line. To be noted: Hela cells, MTT, 48 h cultivation; read-out: IC50 (μM) Hela. On the procedure: as §1, §2, §3, §4, §5

As usually defined, the IC50 is the midpoint of a concentration-inhibition curve. Turning to `COc1cc(C2c3cc4c(cc3C(Sc3ccccn3)C3COC(=O)C23)OCO4)cc(OC)c1OC` (stereo not drawn) [Compound 5, 4-S-(pyridin-2)-4-deoxy-podophyllotoxin], the figures for the IC50 in the test on A549 cell line, in the test on BGC823 cell line and with Hela cell line were 5.66 ± 0.47 µM, 4.76 ± 0.12 µM and 0.73 ± 0.05 µM, respectively.
Taken in the same sequence, the figures for `COc1cc(C2c3cc4c(cc3C(Sc3ncccc3C(=O)O)C3COC(=O)C23)OCO4)cc(OC)c1OC` (stereo not drawn) [Compound 6, 4-S-(3-picolinate-2)-4-deoxy-podophyllotoxin] were 0.83 ± 0.25 µM, 2.65 ± 0.53 µM and 1.71 ± 0.07 µM.
Turning to `COc1cc(C2c3cc4c(cc3C(Sc3nc(N)n[nH]3)C3COC(=O)C23)OCO4)cc(OC)c1O` (stereo not drawn) [Compound 19, 4-S-(3-amino-1,2,4-triazole-5)-4-deoxy-4′-demethylepipodophyllotoxin], the IC50 in the test on A549 cell line worked out at 0.93 ± 0.84 µM; in the test on BGC823 cell line, 1.93 ± 1.67 µM; in the test on Hela cell line it was 1.51 ± 0.37 µM.
Turning to `COc1cc(C2c3cc4c(cc3C(Sc3ccncc3)C3COC(=O)C23)OCO4)cc(OC)c1O` (stereo not drawn) [Compound 25, 4-S-(pyridin-4)-4-deoxy-4′-demethylepipodophyllotoxin], the figures for the IC50 with A549 cell line, in the test with BGC823 cell line and with Hela cell line were 2.66 ± 0.27 µM, 4.76 ± 0.12 µM and 0.73 ± 0.05 µM, respectively.
With `COc1cc(C2c3cc4c(cc3C(Sc3nnc(NS(=O)(=O)c5ccc(C)cc5)s3)C3COC(=O)C23)OCO4)cc(OC)c1O` (stereo not drawn) [Compound 34, 4-S-[2-N-(4-methyl-benzenesulfonamide-)-1,3,4-thiadiazole-5-]-4-deoxy-4′-demethylepipodophyllotoxin], the IC50 in the test on A549 cell line came to 5.89 ± 0.74 µM; in the test with BGC823 cell line, 0.85 ± 0.43 µM; with Hela cell line, 2.11 ± 0.34 µM.
As for `COc1cc(C2c3cc4c(cc3C(Sc3cccc(C)n3)C3COC(=O)C23)OCO4)cc(OC)c1OC` (stereo not drawn) [Compound 7, 4-S-(6-methyl-pyridin-2)-4-deoxy-podophyllotoxin], the results for the 50% inhibitory concentration (IC50) with A549 cell line, in the test on BGC823 cell line and in the test on Hela cell line were 1.12 ± 0.28 µM, 3.51 ± 0.14 µM and 0.9 ± 0.05 µM, respectively.
With `COc1cc(C2c3cc4c(cc3C(Sc3nc5ccccc5o3)C3COC(=O)C23)OCO4)cc(OC)c1OC` (stereo not drawn) [Compound 14, 4-S-(benzoxazole-2)-4-deoxy-podophyllotoxin], the values for the IC50 in the test with A549 cell line, in the test with BGC823 cell line and in the test with Hela cell line were 1.01 ± 0.14 µM, 0.21 ± 0.02 µM and 0.92 ± 0.08 µM, respectively.
Taken in the same sequence, the figures for `COc1cc(C2c3cc4c(cc3C(Sc3nnc(NS(=O)(=O)c5ccc(C)cc5)s3)C3COC(=O)C23)OCO4)cc(OC)c1OC` (stereo not drawn) [Compound 17, 4-S-[2-N-(4-methyl-benzenesulfonamide-)-1,3,4-thiadiazole-5-]-4-deoxy-podophyllotoxin] were 1.12 ± 1.74 µM, 1.04 ± 0.13 µM and 0.97 ± 0.02 µM.
For `COc1cc(C2c3cc4c(cc3C(Sc3nc(C)cc(C)n3)C3COC(=O)C23)OCO4)cc(OC)c1O` (stereo not drawn) [Compound 28, 4-S-(4,6-dimethyl-pyrimidine-2)-4-deoxy-4′-demethylepipodophyllotoxin] the same measures were 1.27 ± 1.12 µM, 4.29 ± 0.83 µM and 5.26 ± 0.62 µM.
`COc1cc(C2c3cc4c(cc3C(Sc3cccc(C)n3)C3COC(=O)C23)OCO4)cc(OC)c1O` (stereo not drawn) [Compound 24, 4-S-(6-methyl-pyridin-2)-4-deoxy-4′-demethylepipodophyllotoxin]: the values for the IC50 in the test with A549 cell line, with BGC823 cell line and in the test with Hela cell line were 1.11 ± 0.94 µM, 4.01 ± 0.02 µM and 7.18 ± 0.07 µM, respectively.
For `COc1cc(C2c3cc4c(cc3C(Sc3n[nH]c(C)n3)C3COC(=O)C23)OCO4)cc(OC)c1OC` (stereo not drawn) [Compound 2, 4-S-(5-methyl-1,2,4-triazole-3)-4-deoxy-podophyllotoxin], the IC50 stood at 1.01 ± 0.28 µM with A549 cell line, 0.27 ± 0.03 µM in the test with BGC823 cell line and 0.15 ± 0.03 µM in the test on Hela cell line.
For `COc1cc(C2c3cc4c(cc3C(Sc3nc5ccccc5s3)C3COC(=O)C23)OCO4)cc(OC)c1O` (stereo not drawn) [Compound 29, 4-S-(benzothiazol-2)-4-deoxy-4′-demethylepipodophyllotoxin] the same measures were 0.85 ± 0.93 µM, 1.37 ± 0.43 µM and 4.57 ± 0.16 µM.
For `COc1ccc(S(=O)(=O)Nc2nc(SC3c4cc5c(cc4C(c4cc(OC)c(O)c(OC)c4)C4C(=O)OCC34)OCO5)n[nH]2)cc1` (stereo not drawn) [Compound 33, 4-S-[3-N-(4-methoxy-benzenesulfonamide-)-1,2,4-triazole-5-]-4-deoxy-4′-demethylepipodophyllotoxin] the same measures were 1.37 ± 2.15 µM, 1.27 ± 0.53 µM and 1.56 ± 0.88 µM.
With `COc1cc(C2c3cc4c(cc3C(Sc3nccc(N)n3)C3COC(=O)C23)OCO4)cc(OC)c1O` (stereo not drawn) [Compound 27, 4-S-(4-amino-pyrimidine-2)-4-deoxy-4′-demethylepipodophyllotoxin], the IC50 in the test on A549 cell line turned out to be 3.27 ± 0.17 µM; with BGC823 cell line, 0.22 ± 0.03 µM; in the test with Hela cell line, 1.33 ± 0.39 µM.
For the molecule `COc1cc(C2c3cc4c(cc3C(Sc3nccc(N)n3)C3COC(=O)C23)OCO4)cc(OC)c1OC` (stereo not drawn) [Compound 10, 4-S-(4-amino-pyrimidine-2)-4-deoxy-podophyllotoxin], the IC50 is 4.65 ± 0.26 µM with A549 cell line, 1.32 ± 0.15 µM with BGC823 cell line and 1.85 ± 0.12 µM with Hela cell line.
